In patent publication US20230019491A1, “PYRIMIDINE TBK/IKKe INHIBITOR COMPOUNDS AND USES THEREOF” (Merck Patent GmbH, priority 2017, published 2023):

How the values were obtained:
TBK1 = molecular target: T1, TBK1 (Homo sapiens, UniProt Q9UHD2); assay: TBK biochemical assay; details: 10 point 1:4 dose response, 30 uM top concentration, 90 min at 25° C., LabChip EZ Reader II; read-out: TBK1_IC50
T1 sequence (Q9UHD2 1-729): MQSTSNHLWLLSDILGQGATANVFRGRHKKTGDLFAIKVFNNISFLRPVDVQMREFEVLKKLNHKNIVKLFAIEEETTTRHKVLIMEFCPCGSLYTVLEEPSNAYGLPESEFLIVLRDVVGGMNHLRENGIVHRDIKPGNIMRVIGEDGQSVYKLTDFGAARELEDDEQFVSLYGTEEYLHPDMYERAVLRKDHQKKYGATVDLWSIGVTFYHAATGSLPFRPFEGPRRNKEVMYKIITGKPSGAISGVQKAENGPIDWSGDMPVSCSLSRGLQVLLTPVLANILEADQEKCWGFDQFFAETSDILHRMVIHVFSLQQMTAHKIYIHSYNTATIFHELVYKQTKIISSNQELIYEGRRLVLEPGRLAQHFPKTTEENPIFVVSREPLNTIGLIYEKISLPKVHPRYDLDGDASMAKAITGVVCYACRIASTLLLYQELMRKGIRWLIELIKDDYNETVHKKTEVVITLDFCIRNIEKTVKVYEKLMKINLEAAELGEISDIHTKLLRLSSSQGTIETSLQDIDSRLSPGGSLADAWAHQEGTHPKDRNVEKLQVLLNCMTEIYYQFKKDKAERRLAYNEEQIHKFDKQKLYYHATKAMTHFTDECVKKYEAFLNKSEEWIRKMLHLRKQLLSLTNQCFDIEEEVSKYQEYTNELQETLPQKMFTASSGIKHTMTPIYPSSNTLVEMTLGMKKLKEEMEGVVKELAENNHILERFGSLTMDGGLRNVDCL
In short: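 Read-out was a Caliper LabChip mobility-shift assay, run after a 90-min, 25 °C reaction of TBK1 with substrate and compounds, quenched with stop buffer. Control wells received staurosporine at 10 uM final.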

IKKε = molecular target: T2, IKKε (Homo sapiens, UniProt Q14164); assay: IKKε biochemical assay; details: 10 point 1:4 dose response, 30 uM top concentration, 90 min at 25° C., LabChip EZ Reader II; read-out: IKKε_IC50
T2 sequence (Q14164 1-716): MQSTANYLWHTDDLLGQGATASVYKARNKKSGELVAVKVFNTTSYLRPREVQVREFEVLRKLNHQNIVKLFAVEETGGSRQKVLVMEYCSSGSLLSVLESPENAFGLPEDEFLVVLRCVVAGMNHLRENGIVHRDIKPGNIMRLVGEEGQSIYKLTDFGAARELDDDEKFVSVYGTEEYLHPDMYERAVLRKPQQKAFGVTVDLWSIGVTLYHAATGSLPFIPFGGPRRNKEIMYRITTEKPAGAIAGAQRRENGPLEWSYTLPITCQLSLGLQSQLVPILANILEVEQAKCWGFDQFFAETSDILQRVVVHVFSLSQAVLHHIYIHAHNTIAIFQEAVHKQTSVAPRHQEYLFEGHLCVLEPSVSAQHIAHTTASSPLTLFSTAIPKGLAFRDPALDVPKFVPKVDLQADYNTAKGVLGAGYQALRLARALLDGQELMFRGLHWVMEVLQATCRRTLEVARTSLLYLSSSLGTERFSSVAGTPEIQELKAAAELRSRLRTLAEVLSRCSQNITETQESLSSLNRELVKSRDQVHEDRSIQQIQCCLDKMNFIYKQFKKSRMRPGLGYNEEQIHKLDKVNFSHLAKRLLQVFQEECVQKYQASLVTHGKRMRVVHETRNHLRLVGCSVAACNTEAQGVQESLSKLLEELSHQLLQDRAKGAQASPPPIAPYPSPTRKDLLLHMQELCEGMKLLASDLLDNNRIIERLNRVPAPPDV
In short: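 Mobility-shift LabChip read-out followed a 90 min, 25° C. reaction of IKKε with substrate and test compound, with DMSO held at 1% final. Reactions were ended with stop buffer. Wells with 10 uM final staurosporine defined complete inhibition, and DMSO-only wells the uninhibited level.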

Which results are given for `COc1nc(Nc2ncc(F)c(-c3ccc(O[C@@H]4CCN(C(=O)[C@H](C)O)CC4(F)F)c(C#N)c3)n2)ccc1N1CCN(C2COC2)CC1` [Example 289, 2-[[(4R)-3,3-difluoro-1-[(2S)-2-hydroxypropanoyl]piperidin-4-yl]oxy]-5-[5-fluoro-2-([6-methoxy-5-[4-(oxetan-3-yl)piperazin-1-yl]pyridin-2-yl]amino)pyrimidin-4-yl]benzonitrile]?
IC50 (TBK1): < 0.1 µM; IC50 (IKKε): < 0.1 µM

With `COc1nc(Nc2nccc(-c3ccc(OC4CCOCC4)c(C#N)c3)n2)ccc1N1CCN(C)CC1` [Example 33, 5-(2-(6-methoxy-5-(4-methylpiperazin-1-yl)pyridin-2-ylamino)pyrimidin-4-yl)-2-(tetrahydro-2H-pyran-4-yloxy)benzonitrile] as the compound, how does the IC50 (TBK1) read?
Its IC50 is < 0.1 µM.

What about the IC50 (IKKε) of the same compound?
Its IC50 is < 0.1 µM.

How did the IC50 (TBK1) turn out when `COc1nc(Nc2nccc(-c3ccc(OC4CCN(C(=O)[C@@H](O)CO)CC4C)c(C#N)c3)n2)ccc1N1CCN(C2COC2)CC1` (stereo partly drawn) [Example 272, 2-[1-((S)-2,3-Dihydroxy-propionyl)-3-methyl-piperidin-4-yloxy]-5-{2-[6-methoxy-5-(4-oxetan-3-yl-piperazin-1-yl)-pyridin-2-ylamino]-pyrimidin-4-yl}-benzonitrile] was run?
Its IC50 is < 0.1 µM.

And the IC50 (IKKε)?
Its IC50 is < 0.1 µM.

For `C[C@@H](O)C(=O)N1CC(COc2ccc(-c3ccnc(Nc4ccc(N5CCN(C6COC6)CC5)cc4)n3)cc2C#N)C1` [Example 278, 2-([1-[(2R)-2-hydroxypropanoyl]azetidin-3-yl]methoxy)-5-[2-([4-[4-(oxetan-3-yl)piperazin-1-yl]phenyl]amino)pyrimidin-4-yl]benzonitrile], which IC50 (TBK1) is on record?
Its IC50 is 0.1 to 1 µM.

And the IC50 (IKKε)?
Its IC50 is 0.1 to 1 µM.

Which results are given for `COc1nc(Nc2nccc(-c3ccc(O[C@@H]4CCN(C(=O)[C@H](C)O)C[C@@H]4F)c(C#N)c3)n2)ccc1N1CCN(C2COC2)CC1` [Example 118, 2-[(3S,4R)-3-Fluoro-1-((S)-2-hydroxy-propionyl)-piperidin-4-yloxy]-5-{2-[6-methoxy-5-(4-oxetan-3-yl-piperazin-1-yl)-pyridin-2-ylamino]-pyrimidin-4-yl}-benzonitrile]?
IC50 (TBK1): < 0.1 µM; IC50 (IKKε): < 0.1 µM

With `N#Cc1cc(-c2ccnc(Nc3cccc(C4CCN(C5COC5)CC4)c3)n2)ccc1OC1CCNCC1(F)F` (centres unmarked) [Example 222, 2-(3,3-Difluoro-piperidin-4-yloxy)-5-{2-[3-(1-oxetan-3-yl-piperidin-4-yl)-phenylamino]-pyrimidin-4-yl}-benzonitrile] as the compound, how does the IC50 (TBK1) read?
The IC50 was < 0.1 µM.

What about the IC50 (IKKε) of the same compound?
Its IC50 is < 0.1 µM.

Which results are given for `COc1nc(Nc2nccc(-c3ccc(OC4CCN(C(=O)[C@H](C)O)CC4(F)F)c(C#N)c3)n2)ccc1N1CCOCC1` (stereo partly drawn) [Example 275, 2-([3,3-difluoro-1-[(2S)-2-hydroxypropanoyl]piperidin-4-yl]oxy)-5-(2-[[6-methoxy-5-(morpholin-4-yl)pyridin-2-yl]amino]pyrimidin-4-yl)benzonitrile]?
IC50 (TBK1): < 0.1 µM; IC50 (IKKε): < 0.1 µM

For `COc1nc(Nc2nccc(-c3ccc(O[C@@H]4CCN(C(=O)[C@H](C)O)CC4(F)F)c(C#N)c3)n2)ccc1N1CCN(C2COC2)CC1` [Example 122, 2-[[(4R)-3,3-difluoro-1-[(2S)-2-hydroxypropanoyl]piperidin-4-yl]oxy]-5-[2-([6-methoxy-5-[4-(oxetan-3-yl)piperazin-1-yl]pyridin-2-yl]amino)pyrimidin-4-yl]benzonitrile], which IC50 (TBK1) is on record?
Its IC50 is < 0.1 µM.

And the IC50 (IKKε)?
The IC50 was < 0.1 µM.

How did the IC50 (TBK1) turn out when `COc1nc(Nc2nccc(-c3ccc(OC4CCOCC4)c(C#N)c3)n2)ccc1N1C[C@@H](C)N(C2COC2)[C@@H](C)C1` [Example 38, 5-[2-([5-[cis-3,5-dimethyl-4-(oxetan-3-yl)piperazin-1-yl]-6-methoxypyridin-2-yl]amino)pyrimidin-4-yl]-2-(oxan-4-yloxy)benzonitrile] was run?
Its IC50 is < 0.1 µM.

And the IC50 (IKKε)?
Its IC50 is < 0.1 µM.

What does the source list for `COc1nc(Nc2nccc(-c3ccc(OC4COC4)c(C#N)c3)n2)ccc1N1CCN(C2COC2)CC1` [Example 160, 5-[2-([6-methoxy-5-[4-(oxetan-3-yl)piperazin-1-yl]pyridin-2-yl]amino)pyrimidin-4-yl]-2-(oxetan-3-yloxy)benzonitrile]?
IC50 (TBK1): 0.1 to 1 µM; IC50 (IKKε): 0.1 to 1 µM

What does the source list for `COc1nc(Nc2nccc(-c3cc(C#N)c(OC4CCN(C(=O)[C@H](C)O)CC4(F)F)cc3C)n2)ccc1N1CCN(C2COC2)CC1` (stereo partly drawn) [Example 307, 2-([3,3-difluoro-1-[(2S)-2-hydroxypropanoyl]piperidin-4-yl]oxy)-5-[2-([6-methoxy-5-[4-(oxetan-3-yl)piperazin-1-yl]pyridin-2-yl]amino)pyrimidin-4-yl]-4-methylbenzonitrile]?
IC50 (TBK1): < 0.1 µM; IC50 (IKKε): < 0.1 µM

How did the IC50 (TBK1) turn out when `COc1nc(C(=O)N(C)C)ccc1Nc1nccc(-c2ccc(NC3CCOCC3)c(C#N)c2)n1` [Example 62, 5-[(4-[3-cyano-4-[(oxan-4-yl)amino]phenyl]pyrimidin-2-yl)amino]-6-methoxy-N,N-dimethylpyridine-2-carboxamide] was run?
Its IC50 is < 0.1 µM.

What about the IC50 (IKKε) of the same compound?
Its IC50 is 0.1 to 1 µM.

Which results are given for `COc1nc(Nc2nccc(-c3ccc(OC4CCN(C(=O)[C@H](C)O)CC4(F)F)c(C#N)c3)n2)ccc1C(=O)N(C)C` (stereo partly drawn) [Example 324, 6-([4-[3-cyano-4-([3,3-difluoro-1-[(2S)-2-hydroxypropanoyl]piperidin-4-yl]oxy)phenyl]pyrimidin-2-yl]amino)-2-methoxy-N,N-dimethylpyridine-3-carboxamide]?
IC50 (TBK1): < 0.1 µM; IC50 (IKKε): < 0.1 µM

For `CCOc1cc(Nc2nccc(-c3ccc(OC4CCN(C(=O)[C@H](C)O)CC4(F)F)c(C#N)c3)n2)ccc1N1CCN(C2COC2)CC1` (stereo partly drawn) [Example 229, 2-([3,3-difluoro-1-[(2S)-2-hydroxypropanoyl]piperidin-4-yl]oxy)-5-[2-([3-ethoxy-4-[4-(oxetan-3-yl)piperazin-1-yl]phenyl]amino)pyrimidin-4-yl]benzonitrile], which IC50 (TBK1) is on record?
Its IC50 is < 0.1 µM.

And the IC50 (IKKε)?
Its IC50 is < 0.1 µM.

Which IC50 (TBK1) does the source give for `COc1nc(Nc2nccc(-c3ccc(O[C@H]4CCN(C)C[C@H]4F)c(C#N)c3)n2)ccc1N1CCN(C)CC1` [Example 96, 2-(((3R,4S)-3-fluoro-1-methylpiperidin-4-yl)oxy)-5-(2-((6-methoxy-5-(4-methylpiperazin-1-yl)pyridin-2-yl)amino)pyrimidin-4-yl)benzonitrile] here?
The IC50 was < 0.1 µM.

And the IC50 (IKKε)?
The IC50 was < 0.1 µM.

What does the source list for `COc1cc(Nc2nccc(-c3ccc(OC4CCOCC4)c(C#N)c3)n2)cnc1C(=O)N(C)C` [Example 50, 5-([4-[3-cyano-4-(oxan-4-yloxy)phenyl]pyrimidin-2-yl]amino)-3-methoxy-N,N-dimethylpyridine-2-carboxamide]?
IC50 (TBK1): < 0.1 µM; IC50 (IKKε): < 0.1 µM

What does the source list for `COc1nc(Nc2nccc(-c3ccc(OC4CCOCC4)c(C#N)c3)n2)ccc1C(=O)N[C@@H]1[C@@H]2C[C@H]1CN(C)C2` [Example 20, 6-([4-[3-cyano-4-(oxan-4-yloxy)phenyl]pyrimidin-2-yl]amino)-2-methoxy-N-[(1R,5S,6S)-3-methyl-3-azabicyclo[3.1.1]heptan-6-yl]pyridine-3-carboxamide]?
IC50 (TBK1): < 0.1 µM; IC50 (IKKε): < 0.1 µM

With `COc1nc(Nc2nccc(-c3ccc(OC4CCN(C(=O)CO)CC4(F)F)c(C#N)c3)n2)ccc1N1CCN(C)CC1` (centres unmarked) [Example 99, 2-[[3,3-difluoro-1-(2-hydroxyacetyl)piperidin-4-yl]oxy]-5-(2-[[6-methoxy-5-(4-methylpiperazin-1-yl)pyridin-2-yl]amino]pyrimidin-4-yl)benzonitrile] as the compound, how does the IC50 (TBK1) read?
The IC50 was < 0.1 µM.

And the IC50 (IKKε)?
The IC50 was < 0.1 µM.

What does the source list for `COc1nc(Nc2nccc(-c3ccc(OC4CCN(C(=O)c5cocn5)CC4)c(C#N)c3)n2)ccc1N1CCN(C)CC1` [Example 93, 5-(2-[[6-methoxy-5-(4-methylpiperazin-1-yl)pyridin-2-yl]amino]pyrimidin-4-yl)-2-([1-[(1,3-oxazol-4-yl)carbonyl]piperidin-4-yl]oxy)benzonitrile]?
IC50 (TBK1): < 0.1 µM; IC50 (IKKε): < 0.1 µM
